Laboratory results from publication PMC12133303, “Characterisation of RNA guanine-7 methyltransferase (RNMT) using a small molecule approach” (Biochemical Journal, 2025).
Where two headings read alike, the source gives them in different places.

Assays:
Avi-HsRNMT-RAM = molecular target: T1, Avi-HsRNMT-RAM (Homo sapiens, UniProt O43148); experiment: SPR binding to immobilised Avi-HsRNMT-RAM; settings: for kon: read-out: ka
T1 construct: Both HsRNMT full-length proteins (1-476) in complex with HsRAM (1-90) (HsRNMT-RAM and Avi-HsRNMT-RAM); hexa-His tag (TEV-cleavable) (N, cleaved yes); made in house; host or cells: Escherichia coli BL21 (DE3), co-transformed with pCDFduet-BirA
From the text: To elucidate the cap-binding mode, full-length HsRNMT in complex with activating subunit RAM (Avi-HsRNMT-RAM) was investigated by surface plasmon resonance (SPR). We first measured the kinetic and equilibrium binding constants (KD) for SAM (Figure 3A), SAH (Figure 3B), and Sinefungin (Figure 3C). The kinetics of binding for these compounds appear very similar with a rapid onset of binding reaching a steady state within a few seconds. The loss of binding on washing with buffer was very similar.
Studies of binding kinetics were performed on a Biacore™ 8K + instrument (GE Healthcare). […] Compounds were tested in duplicate in a three-fold, eight-point serial dilution series in immobilisation buffer supplemented with 1% DMSO, with a flow rate of 30 μL min^-1, a contact time of 60 s and a dissociation time of 120 s at 25°C.
All monitored binding resonance signals were referenced with responses from unmodified reference surfaces, corrected for bulk shifts arising from differences in DMSO concentrations between samples and running buffer (solvent correction) and blank-referenced. Analysis was performed using the Biacore™ Insight Evaluation Software 2.0 with data fitted using the Langmuir 1:1 model.
The full-length HsRNMT complexed with HsRAM 1–90 (Avi-HsRNMT-RAM) was immobilised onto a Series S high-affinity SA sensor chip via C-terminal Avi-tag capture in HBS-P + buffer (10 mM HEPES, 150 mM NaCl, 0.5 mM TCEP) to an immobilisation level of 2200 RU, and the titration was performed at 15°C.

HsRNMT-RAM [1] = molecular target: T2, HsRNMT-RAM (Homo sapiens, UniProt O43148); experiment: Isothermal titration calorimetry (ITC); assay type: binding; parameters: For biochemical assays, full-length HsRNMT (1-476) was cloned in the pOPC bi-cistronic plasmid; His-MBP (TEV-cleavable) (cleaved yes); made in house; host or cells: Escherichia coli BL21 (DE3); settings: for ΔG / ΔH / −TΔS: 25 mM HEPES pH7.5, 150 mM NaCl, 1 mM TCEP with 10 mM Sinefungin or SAH at 298°K; for Kd: protein pretreated with Sinefungin or SAH
Experimental: For both DDD1060606 and DDD1870799, we determined the enthalpic and entropic components of the free energy of binding to HsRNMT-RAM to guide both compound selection and the optimisation process. Note that all of the isothermal titration calorimetry (ITC) experiments were performed with protein pretreated with SAH or Sinefungin. We used cap as the reference ligand as it is widely accepted that ligands with more negative enthalpies of binding provide better starting points for lead optimisation. The interaction of cap with HsRNMT-RAM is enthalpically driven with an ΔH of −33.5 kcal/mol (Figure 9A) and net free energy change, ΔG of −8.4 kcal/mol (Figure 9B). Furthermore, we determined the binding affinities for DDD1060606 and DDD1870799 to HsRNMT-RAM.
[…] Working stock for ligands and protein complex was prepared at the required concentration by diluting the stocks with the dialysis buffer. The DMSO concentrations in the cell and syringe solutions were matched to 2.5% for the compound (DDD1060606 or DDD1870799) titrations. Experiments were performed using 13 injections of 3 μL of ligand using Malvern PEAQ-ITC system at 25°C, at 750 rpm with reference power set to 7 μcal/s. The thermograms were analysed using MicroCal PEAQ-ITC Analysis Software, blanked to ligand control and fit to One Set of Sites Model.

HsRNMT-RAM [2] = molecular target: T2, HsRNMT-RAM; experiment: RapidFire mass spectrometry assay, inhibition dose response; assay type: biochemical; parameters: For biochemical assays, full-length HsRNMT (1-476) was cloned in the pOPC bi-cistronic plasmid; His-MBP (TEV-cleavable) (cleaved yes); made in house; host or cells: Escherichia coli BL21 (DE3); settings: for IC50: 5 nM HsRNMT-RAM, 2 µM SAM, 2 µM cap, 60 minutes, 10 point 1:3 dilutions from 100 μM, read-out: pIC50 (negative logarithm of half-maximal inhibitory concentration [molar]) (converted)
HsRNMT-RAM [3] = molecular target: T2, HsRNMT-RAM; experiment: Mode of inhibition experiments (RapidFire assay); settings: for Ki: Ki (95% CI)
Experimental: An endpoint 384-well plate assay for HsRMNT-RAM activity was developed using the Agilent RapidFire 365 high-throughput system with integrated SPE interfaced with the Agilent 6740 triple quadrupole mass spectrometer. The assay was performed by mixing 5 nM HsRNMT-RAM in buffer (20 mM Tris, pH 8.0, 50 mM NaCl) supplemented with 1 mM EDTA, 1 mM DTT, 0.1 mg/mL BSA, 0.005% Nonidet P40 (Roche) and 3 mM MgCl2 with 2 µM of substrates (G(5′)ppp(5′)G Sodium Salt (cap) [New England Biolabs, Ipswich, MA]) and S-(5′-Adenosyl)-L-methionine chloride dihydrochloride (SAM [Cayman Chemical, Ann Arbor, MI]). The enzymatic reaction incubated for 60 minutes at room temperature followed by quenching with 80 μL 1% formic acid (VWR, Radnor, PA) containing 0.03 µg/µL S-adenosylhomocysteine-d4 (d4SAH [Cambridge Bioscience, Cambridge, U.K]). Plates were centrifuged at 500×g for 1 minute after every addition and sealed using the PlateLoc thermal microplate sealer before analysis on the RapidFire. Samples were loaded onto the RapidFire system, and analysis was performed as described for the identification of inhibitors of the SARS-CoV-2 guanine-N7-methyltransferase [32].
Mode of inhibition experiments were carried out by testing enzymatic activity at a range of compound and substrate concentrations. Compounds were tested at five different concentrations selected around the pIC50 against five substrate concentrations (between 2.2 and 20 µM). The data were fitted globally to equations describing inhibition [47] to determine the respective kinetic constants. All analyses were performed in Sigmaplot Version 14.0.3.192.
Where relevant, data are presented as the mean of three independent experiments with 95% CI.

HsRNMT-RAM [4] = molecular target: T2, HsRNMT-RAM; experiment: Km determinations (RapidFire Mass Spec assay); assay type: biochemical; parameters: For biochemical assays, full-length HsRNMT (1-476) was cloned in the pOPC bi-cistronic plasmid; His-MBP (TEV-cleavable) (cleaved yes); made in house; host or cells: Escherichia coli BL21 (DE3); settings: SAM 40 to 0.08 µM, saturating cap (40 µM), 5 nM enzyme; mean of three experiments [95% CI]
Experimental: Experiments to determine the Km^app values were carried out using a two-fold dilution of cap or SAM from 40 to 0.08 µM and a saturating concentration (40 µM) of SAM (Km^app cap) or cap (Km^app SAM). HsRNMT-RAM was used at 5 nM. Data were analysed to calculate the initial velocity (V0). Km^app and Vmax values were determined by nonlinear regression analysis fitted to the Michaelis–Menten equation [46] using Sigmaplot Version 14.0.3.192.

[5] = SPR, ligand titrated in presence of SAH
[6] = SPR, ligand titrated in presence of Sinefungin (saturating, 1 µM), 15°C
[7] = SPR, no co-ligand, Langmuir 1:1 model
[8] = SPR, inhibitor titrated in presence of SAH
[9] = SPR, inhibitor titrated in presence of SAH, read-out: KD (kinetic)
[10] = SPR, inhibitor titrated in presence of SAH, read-out: KD (steady state)
[11] = SPR, inhibitor titrated in presence of SAM
[12] = SPR, inhibitor titrated, no co-ligand
[13] = SPR, no co-ligand, read-out: KD (kinetic)
[14] = SPR, no co-ligand, read-out: KD (steady state)

T2 sequence (O43148 whole entry): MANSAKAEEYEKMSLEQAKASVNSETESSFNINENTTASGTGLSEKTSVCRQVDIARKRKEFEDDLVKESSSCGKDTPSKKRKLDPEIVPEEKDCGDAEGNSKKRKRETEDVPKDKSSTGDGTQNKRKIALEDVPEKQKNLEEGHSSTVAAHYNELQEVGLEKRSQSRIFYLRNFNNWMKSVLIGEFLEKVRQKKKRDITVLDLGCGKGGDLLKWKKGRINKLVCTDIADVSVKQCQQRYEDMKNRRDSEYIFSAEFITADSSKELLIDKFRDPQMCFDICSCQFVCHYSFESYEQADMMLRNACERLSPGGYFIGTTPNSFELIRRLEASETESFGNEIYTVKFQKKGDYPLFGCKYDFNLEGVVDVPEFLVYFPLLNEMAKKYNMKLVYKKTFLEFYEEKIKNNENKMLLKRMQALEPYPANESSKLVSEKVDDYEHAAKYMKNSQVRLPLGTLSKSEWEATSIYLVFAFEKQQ
T2 sequence (Q9BTL3 1-90 partner limits assumed): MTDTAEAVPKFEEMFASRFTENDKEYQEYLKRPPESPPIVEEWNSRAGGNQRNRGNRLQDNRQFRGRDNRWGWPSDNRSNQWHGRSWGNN
T1 sequence (O43148 whole entry): as the sequence (O43148 whole entry) above
T1 sequence (Q9BTL3 1-90 partner limits assumed): as the sequence (Q9BTL3 1-90 partner limits assumed) above

## Nc1nc2c(ncn2[C@@H]2O[C@H](COP(=O)(O)OP(=O)(O)OP(=O)(O)OC[C@H]3O[C@@H](n4cnc5c(=O)[nH]c(N)nc54)[C@H](O)[C@@H]3O)[C@@H](O)[C@H]2O)c(=O)[nH]1 [Cap, G(5′)ppp(5′)G]
Avi-HsRNMT-RAM; [5]
  KD (kinetic): No binding
  KD (steady state): No binding
  Rmax: No binding
  ka: No binding
  kd: No binding
Avi-HsRNMT-RAM; SPR, ligand titrated in presence of SAH, listed as cap
  KD (kinetic): No interaction
Avi-HsRNMT-RAM; [6]
  Rmax: 11.8 RU
  kd: 0.025 s⁻¹
  kon: 1.2e+06 M⁻¹ s⁻¹
Avi-HsRNMT-RAM; SPR, ligand titrated in presence of Sinefungin (saturating, 1 µM), 15°C, read-out: KD (kinetic)
  Kd: 20 nM
Avi-HsRNMT-RAM; SPR, ligand titrated in presence of Sinefungin (saturating, 1 µM), 15°C, read-out: KD (steady state)
  Kd: 35 nM
Avi-HsRNMT-RAM; SPR, no co-ligand
  KD (kinetic): No binding
  KD (steady state): No binding
  Rmax: No binding
Avi-HsRNMT-RAM; [7]
  ka: No binding
  kd: No binding
Avi-HsRNMT-RAM; SPR, no co-ligand, listed as cap
  KD (kinetic): No interaction
HsRNMT-RAM [1]
  ΔG: -8.4 kcal/mol
  ΔH: -33.5 kcal/mol
  −TΔS: 25.1 kcal/mol
  Kd: 700 nM

## O=C(Cc1ccsc1)N1CCCC(c2n[nH]c3ncccc23)C1 (stereo not drawn) [DDD1060606]
HsRNMT-RAM [2]
  inhibition of HsRNMT-RAM activity: > 80%
  IC50: 3160 nM
Avi-HsRNMT-RAM; [8]
  Rmax: 13.2 RU
  kd: 0.27 s⁻¹
Avi-HsRNMT-RAM; [9]
  Kd: 1600 nM
Avi-HsRNMT-RAM; [10]
  Kd: 1400 nM
Avi-HsRNMT-RAM; [11]
  KD (kinetic): No binding
  KD (steady state): No binding
  Rmax: No binding
  ka: No binding
  kd: No binding
Avi-HsRNMT-RAM; [12]
  KD (kinetic): No binding
  KD (steady state): No binding
  Rmax: No binding
  ka: No binding
  kd: No binding
HsRNMT-RAM [3]; Ki SAM, against SAM
  Ki: 1600 nM
HsRNMT-RAM [3]; Ki cap, against cap
  Ki: 1600 nM
HsRNMT-RAM [3]; against SAM
  mode of inhibition with SAM: Uncompetitive
HsRNMT-RAM [3]; against cap
  mode of inhibition with cap: Uncompetitive
HsRNMT-RAM [1]
  ΔG: -7.5 kcal/mol
  ΔH: -4.3 kcal/mol
  −TΔS: -3.1 kcal/mol
  Kd: 3200 nM
HsRNMT-RAM [1]; DDD1060606 compared with DDD1870799
  entropic contribution Δ(TΔS): -1.8 kcal/mol

## O=C(Cc1ccc(F)cc1)N1CCCC(c2n[nH]c3nc(O)ccc23)C1 (stereo not drawn) [DDD1870799]
HsRNMT-RAM [2]
  inhibition of HsRNMT-RAM activity: > 80%
  IC50: 10000 nM
Avi-HsRNMT-RAM; [8]
  Rmax: 13.3 RU
  kd: 0.45 s⁻¹
Avi-HsRNMT-RAM; [9]
  Kd: 2500 nM
Avi-HsRNMT-RAM; [10]
  Kd: 2300 nM
Avi-HsRNMT-RAM; [11]
  KD (kinetic): No binding
  KD (steady state): No binding
  Rmax: No binding
  ka: No binding
  kd: No binding
Avi-HsRNMT-RAM; [12]
  KD (kinetic): No binding
  KD (steady state): No binding
  Rmax: No binding
  ka: No binding
  kd: No binding
HsRNMT-RAM [3]; Ki SAM, against SAM
  Ki: 3400 nM
HsRNMT-RAM [3]; Ki cap, against cap
  Ki: 3300 nM
HsRNMT-RAM [3]; against SAM
  mode of inhibition with SAM: Uncompetitive
HsRNMT-RAM [3]; against cap
  mode of inhibition with cap: Uncompetitive
HsRNMT-RAM [1]
  ΔG: -7.5 kcal/mol
  ΔH: -6.2 kcal/mol
  −TΔS: -1.3 kcal/mol
  Kd: 2900 nM
HsRNMT-RAM [1]; DDD1870799 in comparison with DDD1060606
  net enthalpic change ΔΔH: -1.9 kcal/mol

## Nc1nc(O)c2ncn([C@@H]3O[C@H](COP(=O)(O)OP(=O)(O)NP(=O)(O)O)[C@@H](O)[C@H]3O)c2n1 [GMP-PnP, guanosine 5′-[β,γ-imido]triphosphate, reference compound]
HsRNMT-RAM [3]; Ki cap, against cap
  Ki: 2300 nM
HsRNMT-RAM [3]; against cap
  mode of inhibition with cap: competitive

## Nc1ncnc2c1ncn2[C@@H]1O[C@H](CSCC[C@H](N)C(=O)O)[C@@H](O)[C@H]1O [SAH, S-adenosylhomocysteine]
Avi-HsRNMT-RAM; SPR, no co-ligand
  Rmax: 14.3 RU
Avi-HsRNMT-RAM; [7]
  kd: 0.072 s⁻¹
Avi-HsRNMT-RAM; [13]
  Kd: 19 nM
Avi-HsRNMT-RAM; [14]
  Kd: 18 nM
Avi-HsRNMT-RAM
  kon: 3.8e+06 M⁻¹ s⁻¹

## C[S+](CC[C@H](N)C(=O)[O-])C[C@H]1O[C@@H](n2cnc3c(N)ncnc32)[C@H](O)[C@@H]1O (stereo partly drawn) [SAM, S-adenosylmethionine]
Avi-HsRNMT-RAM; SPR, no co-ligand
  Rmax: 14.9 RU
Avi-HsRNMT-RAM; [7]
  kd: 0.1 s⁻¹
Avi-HsRNMT-RAM; [13]
  Kd: 79 nM
Avi-HsRNMT-RAM; [14]
  Kd: 89 nM
Avi-HsRNMT-RAM
  kon: 1.2e+06 M⁻¹ s⁻¹
HsRNMT-RAM [4]
  Km: 1.6 µM

## Nc1ncnc2c1ncn2[C@@H]1O[C@H](C[C@@H](N)CC[C@H](N)C(=O)O)[C@@H](O)[C@H]1O [Sinefungin, reference compound]
Avi-HsRNMT-RAM; SPR, no co-ligand
  Rmax: 14.2 RU
Avi-HsRNMT-RAM; [7]
  kd: 0.092 s⁻¹
Avi-HsRNMT-RAM; [13]
  Kd: 77 nM
Avi-HsRNMT-RAM; [14]
  Kd: 73 nM
Avi-HsRNMT-RAM
  kon: 1.2e+06 M⁻¹ s⁻¹
HsRNMT-RAM [3]; Ki SAM, against SAM
  Ki: 6.8 nM
HsRNMT-RAM [3]; Ki cap, against cap
  Ki: 104 nM
HsRNMT-RAM [3]; against SAM
  mode of inhibition with SAM: competitive inhibition
HsRNMT-RAM [3]; against cap
  mode of inhibition with cap: non-competitive inhibition
